The values that follow come from patent publication US20240053345A1, “POLYPEPTIDES BINDING SELECTIVELY HEPARIN OR HEPARAN SULFATE GLYCOSAMINOGLYCANS AND CELL-PENETRATING POLYPEPTIDES COMPRISING THE SAME” (SORBONNE UNIVERSITE, priority 2020, published 2024).

Where a SMILES comes first, the peptide text is derived from it. The star is where a group is joined. Biotin = O=C1N[C@H]2[C@H](CS[C@H]2CCCCC(=O)*)N1

Series [1] concerns SKOV-3 cells. The series can be described thus: Internalization of peptides in SKOV-3 cells, also after sodium chlorate or GAG-specific enzyme pre-treatment. The format is cell-based, human. The note with it: for internalization after chondroitinase ABC (ChABC) treatment: enzyme pre-treatment 2 h; for internalization after heparinases cocktail treatment: heparinases I, II and III pre-treatment 2 h; for cellular uptake in SKOV-3 compared to CHO-K1: 1 h at 37° C. The protocol: (§1) FIG. 2: Quantification of the internalization of peptides, studied in GAGs-deficient cells CHO-745 (white bar), wild type cells CHO-K1 (light grey bar) and two ovarian adenocarcinoma cells CaOV-3 (dark grey bar) and SKOV-3 (black bar) after 1 h incubation at 37° C. Experiments were done in duplicate or triplicate and repeated at least three times independently. Significance was tested using a student's t-test (NS:p>0.05, *0.05>p>0.01, **0.01>p>0.001, ***0.001>p).
FIG. 4: Quantification of P3 after SKOV-3 pre-treatment with sodium chlorate for 24 h or GAG-specific enzymes for 2 h (a) and P1 after SKOV-3 pre-treatment with GAG-specific enzymes for 2 h (b). Experiments were done in duplicate or triplicate and repeated at least three times independently. Significance was tested using a student's t-test (NS:p>0.05, *0.05>p>0.01, **0.01>p>0.001, ***0.001>p).
(§2) Peptides listed in Table 1 were incubated separately in the following four ovarian cell types which have different GAGs types and expression levels: wild type CHO-K1 (expressing heparan sulfate (HS), chondroitin sulfate A (CSA) and C (CSC)), CHO-pgs A475 (CHO-745) (genetically modified to express only 5-10% HS and CS), two human ovarian adenocarcinoma cells CaOV-3 (overexpressing HS and CSE) and SKOV-3 (overexpressing CSE). Peptides were incubated with one million cells at 37° C. for 1 h.
(§3) Wild type Chinese Hamster Ovary (CHO-K1) cells and GAGs-deficient mutant CHO-745 cells which lack the xylosyltransferase needed for glycosaminoglycan (GAG) synthesis were grown in Dulbecco's modified Eagle's medium F-12 (DMEMF-12) with L-glutamine and 15 mM HEPES. HEK cells and HeLa cells were grown in DMEM with 4.5 g/L D-glucose and pyruvate. Two types of human ovarian cancer cell lines CaOV-3 and SKOV-3 were cultured in DMEM with Glutamax and McCoy's 5A medium, respectively. All complete culture medium was supplemented with 10% fetal bovine serum, penicillin (100,000 IU/L), streptomycin (100 mg/L). Cells were grown in a humidified atmosphere at 37° C. and 5% CO2.
Tested Peptides were incubated separately in the following ovarian cell type: SKOV-3. A pre-treatment with sodium chlorate for 24 h or GAG-specific enzymes for 2 h.
The inventors used different concentrations of chlorate to treat SKOV-3 and analyzed the internalization of P3. […] The inventors also checked that there is no cytotoxicity generated by 100 mM concentration of NaClO3. […] Not merely impairment of sulfation leads to significant P3 internalization decline, enzymatic GAGs degradation might also impact on peptide internalization. They used two specific enzymes: one is the blend of heparinases I, II and III that are extracted from Flavobacterium heparinum and hydrolyze the glycosidic bonds of glucosamine and uronic acids; the other one is chondroitinase ABC (ChABC) lyase purified from Proteus Vulgaris that specifically catalyzes the degradation of chondroitin 4-sulfate, chondroitin 6-sulfate containing (1-4)-β-D-hexosaminyl and (1-3)-β-D-glucuronosyl or (1-3)-α-L-iduronosyl linkages to disaccharides containing 4-deoxy-β-D-gluc-4-enuronosyl groups.

For series [2], the system named is CHO-745, CHO-K1, CaOV-3 and SKOV-3 cells. Nature of the series: Quantification of internalization of peptides in four cell lines. The settings on record: CHO-K1 or the two ovarian cancer cells (CaOV-3, SKOV-3) vs CHO-745; 1 h incubation at 37° C. It counts as cell-based. The protocol:
as §1, §2, §3

Series [3] relates to CHO-K1 cells.
Experimental: (§6) The inventors tested cytotoxicity and hemolysis activity of the peptides incubated with CHO-K1 cells at different concentrations.
The subject of series [4] is CaOV-3 cells. The series can be described thus: Internalization of peptides in CaOV-3 cells. It counts as cell-based, human. The note with it: for internalization efficacy in CaOV-3 compared to CHO-K1 / intracellular concentration of internalized peptide: 1 h at 37° C.; for intracellular concentration of internalized peptide: 1 pmol in 1 million cells taken as 1 μM (1 pL/cell). How it is done: as §1
(§4) FIG. 3: Quantification of internalization of chimeric peptides P1, P3 and P5 in cells CHO-745 (a,b) and in CaOV-3 cells (c,d). Peptides were incubated with cells for 1 h along with heparin (a) or chondroitin sulfate-E (b). P1 was also incubated with CaOV-3 for 1 h along with heparin (c) and P3 incubated with CaOV-3 in the presence of CS-E (d) at different concentrations. Experiments were done in duplicate or triplicate and repeated at least three times independently.
as §2, §3
(§5) Tested Peptides were incubated separately in the following two ovarian cell types: CHO-745 and CaOV-3. The inventors incubated (7.5 μM) peptides with cells lines for 1 h along with exogenous heparin (HI) or chondroitin-4,6-sulfate (CSE) and quantified the internalized peptides by MS.

The test system of series [5] is blood cells. Nature of the series: Hemolysis. The format is cell-based. The settings on record: even at 50 μM for 2 h.
Experimental: as §6
Series [6] is described as follows: Binding to chondroitin sulfate-E.
In series [7] the test system is CHO-745 cells. The series can be described thus: Internalization of peptides in GAGs-deficient cells with exogenous GAGs, quantified by MS. It counts as cell-based, Chinese Hamster. The settings on record: for cellular quantity of internalized peptide: 7.5 μM peptide. The protocol:
as §4
FIG. 5: The effect of heparin favoring P1 internalization can be reversed by addition of heparinase in […].
as §3, §5
P1 was incubated in the CHO-745 ovarian cell type with different concentrations of heparinase. Cells culture are similar to the example 1.

The mark [8] stands for this setting: co-incubation with 7.2 μg/ml HI, 1 h.
[9] abbreviates: co-incubation with 7.2 μg/ml CSE, 1 h.

`CC[C@H](C)[C@H](NC(=O)[C@H](CCCCN)NC(=O)[C@H](C)NC(=O)[C@H](CCCNC(=N)N)NC(=O)[C@H](CCCCN)NC(=O)[C@H](CC(N)=O)NC(=O)[C@H](CCC(N)=O)NC(=O)[C@H](Cc1ccccc1)NC(=O)[C@H](Cc1c[nH]c2ccccc12)NC(=O)[C@@H](NC(=O)[C@H](CCCCN)NC(=O)[C@@H](NC(=O)[C@H](CCC(N)=O)NC(=O)[C@H](CO)NC(=O)[C@H](CCCNC(=N)N)NC(=O)[C@@H]1CCCN1C(=O)[C@H](CCCNC(=N)N)NC(=O)[C@H](CCCCN)NC(=O)[C@H](CC(=O)O)NC(=O)[C@H](CCC(=O)O)NC(=O)[C@H](CCCCN)NC(=O)[C@H](CC(N)=O)NC(=O)[C@@H]1CCCN1C(=O)[C@H](CC(N)=O)NC(=O)[C@H](CCCCN)NC(=O)[C@H](CCCCN)NC(=O)[C@H](CCCCN)NC(=O)[C@@H]1CCCN1C(=O)[C@H](CCCCN)NC(=O)[C@H](CCCNC(=N)N)NC(=O)[C@H](CO)NC(=O)[C@H](CCCNC(=N)N)NC(=O)CNC(=O)CNC(=O)CNC(=O)CNC(=O)CNC(=O)CCCC[C@@H]1SC[C@@H]2NC(=O)N[C@@H]21)[C@@H](C)CC)[C@@H](C)CC)C(=O)N[C@@H](CCCCN)C(=O)N[C@@H](CCCCN)C(N)=O` [P1, Biotin-G5-RSRKPKKKNPNKEDKRPR SQIKIWFQNKRAKIKK-NH2] (Biotin-GGGGGRSRKPKKKNPNKEDKRPRSQIKIWFQNKRAKIKK-NH2): in series [1] (SKOV-3), the “internalization after chondroitinase ABC (ChABC) treatment” value is “decrease” and the “internalization after heparinases cocktail treatment” value is recorded as “decrease”. For the same compound, the “internalization compared with CHO-745 cells” value in series [2] is “entered significantly more”. The cytotoxicity entry in series [3] is given as “not Cytotoxic”. For the same compound, in series [4], the “internalization efficacy in CaOV-3 compared to CHO-K1” value is given as “increased their internalization efficacy”. Besides, in series [4] (CaOV-3), the “intracellular concentration of internalized peptide” value (from here on “intracellular concentration”) is 7 µM. Also, in series [4] (CaOV-3, exogenous heparin, 1 h), the “effect of HI on relative internalization” value is listed as “favorable effect”. In addition, the “hemolysis of blood cells” value in series [5] is reported as “no hemolysis”. Also, the “binding to CSE” value in series [6] is given as “high binding affinity”. Also, in series [7] (setting [8]), the “cellular quantity of internalized peptide” value (shortened to “cellular quantity”) is on record as “around 21 pmol”. In addition, the “effect of CSE addition on internalization” value in series [7] (exogenous CSE, 1 h) is “made no effect”. In addition, the “effect of degradation fragments of HI on internalization” value in series [7] (heparin degraded by heparinase) is given as “lost the ability”. In series [7] (intact heparin), the “effect of intact HI on internalization” value is listed as “promoted P1 internalization”.
For `CC[C@H](C)[C@H](NC(=O)[C@H](CCCCN)NC(=O)[C@H](C)NC(=O)[C@H](CCCNC(=N)N)NC(=O)[C@H](CCCCN)NC(=O)[C@H](CC(N)=O)NC(=O)[C@H](CCC(N)=O)NC(=O)[C@H](Cc1ccccc1)NC(=O)[C@H](Cc1c[nH]c2ccccc12)NC(=O)[C@@H](NC(=O)[C@H](CCCCN)NC(=O)[C@@H](NC(=O)[C@H](CCC(N)=O)NC(=O)[C@H](CO)NC(=O)[C@H](CC(C)C)NC(=O)[C@H](CCC(N)=O)NC(=O)[C@H](C)NC(=O)[C@H](CCCNC(=N)N)NC(=O)[C@@H](NC(=O)[C@H](Cc1ccccc1)NC(=O)[C@@H](NC(=O)[C@@H](NC(=O)[C@H](CCCNC(=N)N)NC(=O)[C@H](CCC(=O)O)NC(=O)[C@H](CCCNC(=N)N)NC(=O)[C@H](CCCNC(=N)N)NC(=O)[C@H](CCC(N)=O)NC(=O)[C@H](CCCCN)NC(=O)[C@H](CCCNC(=N)N)NC(=O)CNC(=O)CNC(=O)CNC(=O)CNC(=O)CNC(=O)CCCC[C@@H]1SC[C@@H]2NC(=O)N[C@@H]21)[C@@H](C)O)[C@@H](C)O)[C@@H](C)O)[C@@H](C)CC)[C@@H](C)CC)C(=O)N[C@@H](CCCCN)C(=O)N[C@@H](CCCCN)C(N)=O` [P3, Biotin-G5-RKQRRERTTFTRAQL SQIKIWFQNKRAKIKK-NH2] (Biotin-GGGGGRKQRRERTTFTRAQLSQIKIWFQNKRAKIKK-NH2), the “cellular uptake in SKOV-3 compared to CHO-K1” value in series [1] is on record as “apparently increased their cellular uptake”. For the same compound, in series [1] (SKOV-3), the “internalization after chondroitinase ABC (ChABC) treatment” value was “significantly curtailed internalization”. In addition, the “internalization after heparinases cocktail treatment” value in series [1] (SKOV-3) is “almost no difference”. Besides, in series [1] (SKOV-3, sodium chlorate 24 h, concentration-dependent), the “internalization efficacy after sodium chlorate pre-treatment” value is listed as “dramatically reduced”. Moreover, the “internalization compared with CHO-745 cells” value in series [2] is reported as “entered significantly more”. Moreover, in series [3], the cytotoxicity entry was “not Cytotoxic”. In addition, the “internalization efficacy in CaOV-3 compared to CHO-K1” value in series [4] was “increased their internalization efficacy”. For the same compound, the “intracellular concentration” value in series [4] (CaOV-3) was determined as 24 µM. Moreover, the “effect of CSE addition on internalization” value in series [4] (CaOV-3, CSE 7.2 μg/ml, 1 h) is listed as “evokes P3 internalization”; in series [4] (CaOV-3, CSE concentrations below 3.6 μg/ml, 1 h) it was “inhibited P3 internalization”. Also, in series [5], the “hemolysis of blood cells” value was “no hemolysis”. The “cellular quantity” value in series [7] (setting [9]) is recorded as “around 6.5 pmol”; in series [7] (setting [8]), approximately 28 pmol.
As to “Biotin-GGGG-KEDKRPRTAFTAEQL SQIKIWFQNKRAKIKK-NH2 [P5]”, in series [1], the “cellular uptake in SKOV-3 compared to CHO-K1” value was “apparently increased their cellular uptake”. Further, in series [2], the “internalization compared with CHO-745 cells” value is “entered significantly more”. Further, the “internalization efficacy in CaOV-3 compared to CHO-K1” value in series [4] is given as “increased their internalization efficacy”. Besides, the “intracellular concentration” value in series [4] (CaOV-3) is 7 µM. The “cellular quantity” value in series [7] (setting [9]) is 2.2 pmol; in series [7] (setting [8]), approximately 22 pmol.
With “SQIKIWFQNKRAKIKK [En2H3, Ac-SQIKIWFQNKRAKIKK-NH2]”, the “internalization compared with CHO-745 cells” value in series [2] was “entered significantly more”. Also, the “internalization efficacy in CaOV-3 compared to CHO-K1” value in series [4] is listed as “increased their internalization efficacy”. Also, the “intracellular concentration” value in series [4] (CaOV-3) is 7 µM.
